{
  "source": "patent US10702513B2",
  "about": "“Methods of treating pain and inducing analgesia” (NEW YORK UNIVERSITY, priority 2012, dated 2020)",
  "key": {"[1]": {"tested_on": "SNI-treated rats", "experiment": "Mechanical hypersensitivity / allodynia (von Frey filaments), SNI model", "type": "in vivo, rat", "conditions": "for sensory hypersensitivity: administered directly into the NAc; for mechanical allodynia: 30 minutes after drug", "description": "(§1) To block CPARs locally in the NAc, microcannulas were stereotactically implanted bilaterally into the NAc, a technique well established (Carr, et al., Neuroscience 2010; 165: 1074-86). The NAc has anatomically distinct core and shell regions, both of which are involved in mood regulation. […] Sensory hypersensitivity was measured using von Frey filaments (Wang, et al. Anesthesiology 2011; 115: 812-821), whereas locomotion tests were performed using standard protocols (Carr, et al., Pschopharmacology (Berl) 2009; 201: 495-506).\n(§2) The Spared Nerve Injury (SNI) surgery was previously described in detail (Wang et al. Anesthesiology 2011, 115: 812-821). Briefly, under Isoflurane anesthesia (1.5 to 2%), the skin on the lateral surface of the right thigh of rat was incised and a section made through the biceps femoris muscle to expose three branches of the sciatic nerve: sural, common peroneal and tibial nerves. The common peroneal and tibial nerves were tied with non-absorbent 5.0 silk sutures at the point of trifurcation. The nerves were then cut distal to the knot, and about 3 to 5 mm of the distal ends were removed. Muscle layer was then sutured close, while skin was stapled. Staples were removed prior to behavioral testing.\nA traditional Dixon up-down method with von Frey filaments was used to measure mechanical allodynia (Wang et al. Anesthesiology 2011, 115: 812-821). In brief, rats were individually placed into plexiglass chambers over a mesh table and acclimated for 20 min before the onset of examination. Beginning with 2.55 g, von Frey filaments in a set with logarithmically incremental stiffness (0.45, 0.75, 1.20, 2.55, 4.40, 6.10, 10.50, 15.10 g) were applied to the lateral ⅓ of right paws (in the distribution of the sural nerve) of animals at least 14 days after SNI surgery, and observers were blinded to the test conditions (CX546 vs. DMSO treatments)."}, "[2]": {"molecular_target": "GluA2-lacking AMPA receptors (Homo sapiens, UniProt P42261)", "sequence (P42261 19-906)": "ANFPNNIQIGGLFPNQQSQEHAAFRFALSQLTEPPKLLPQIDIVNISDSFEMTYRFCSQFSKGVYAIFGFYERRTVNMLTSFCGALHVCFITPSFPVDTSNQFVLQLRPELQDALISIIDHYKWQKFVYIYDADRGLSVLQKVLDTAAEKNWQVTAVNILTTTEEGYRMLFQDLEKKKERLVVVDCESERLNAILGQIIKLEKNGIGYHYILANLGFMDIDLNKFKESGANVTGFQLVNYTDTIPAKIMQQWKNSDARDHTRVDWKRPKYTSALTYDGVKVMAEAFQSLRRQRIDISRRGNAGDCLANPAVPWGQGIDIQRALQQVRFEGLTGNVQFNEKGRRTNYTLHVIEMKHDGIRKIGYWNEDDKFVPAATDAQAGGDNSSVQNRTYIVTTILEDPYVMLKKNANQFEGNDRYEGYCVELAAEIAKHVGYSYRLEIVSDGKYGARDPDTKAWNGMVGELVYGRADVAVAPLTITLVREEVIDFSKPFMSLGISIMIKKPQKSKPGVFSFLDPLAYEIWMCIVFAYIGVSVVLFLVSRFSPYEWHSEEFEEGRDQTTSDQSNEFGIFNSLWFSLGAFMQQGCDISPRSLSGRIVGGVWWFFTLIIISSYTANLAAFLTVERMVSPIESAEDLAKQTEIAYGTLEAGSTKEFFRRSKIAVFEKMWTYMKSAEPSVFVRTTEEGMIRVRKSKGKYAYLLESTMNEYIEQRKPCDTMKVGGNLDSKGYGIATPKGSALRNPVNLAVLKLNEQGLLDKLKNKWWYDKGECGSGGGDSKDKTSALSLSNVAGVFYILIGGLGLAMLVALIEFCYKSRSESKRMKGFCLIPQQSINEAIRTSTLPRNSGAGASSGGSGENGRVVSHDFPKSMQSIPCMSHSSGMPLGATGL", "conditions": "cited from earlier work; for potentiation of CPARs and calcium impermeable AMPA receptors: literature (Sekiguchi 2002; Quirk 2002)"}, "[3]": {"tested_on": "SNI-treated rats", "experiment": "Sucrose preference test (depression-like behavior) after intra-NAc administration, SNI model", "type": "in vivo, rat", "source_text": "After SNI, rats develop sensory hypersensitivity, as measured by increased withdrawal response to von Frey filaments (mechanical allodynia) and acetone (cold allodynia) (FIG. 5) (Wang, et al. Anesthesiology 2011; 115: 812-821). The sucrose preference test (SPT) and forced swim test (FST) are used to assess depression. Preference for sucrose over water is a normal hedonic response in rats, whereas a decreased sucrose preference on the SPT represents anhedonia, a typical feature of depression. […] Sham-operated rats only develop depression-like behavior in the immediate postoperative period (FIG. 6C), due to acute incisional pain. These experiments were repeated in the PI model, and sensory and depressive symptoms both develop within 24 hours after paw incision and resolve 7 days later (FIG. 7). Thus, in animal models both acute and chronic postoperative pain cause depressive behavior.\nas §1"}, "[4]": {"tested_on": "SNI-treated rats", "experiment": "Forced swim test, SNI model", "type": "in vivo, rat", "conditions": "10 mg/kg intraperitoneal, vs DMSO", "source_text": "as §2\nOn the first session of the test, each animal was placed for fifteen minutes into a standard clear Porsolt chamber with water at 25° C. filled to 25 cm. Afterwards, the animal was taken out of the chamber, dried and put back in its home cage. 24 hours later, the animal was placed into the Porsolt chamber again under the same conditions for 5 min. Both sessions were videotaped, but only the second session was analyzed. Immobility was defined as a lack of movement of the hind paws lasting greater than 1 second. Two independent observers, examined and graded the total time of immobility for each rat, and the average grade was presented for each animal. FST was conducted 14 days after surgeries. […]"}, "[5]": {"tested_on": "SNI-treated rats", "experiment": "Cold hypersensitivity / allodynia (acetone), SNI model", "type": "in vivo, rat", "source_text": "as §2, with “Briefly,” for “The Spared Nerve Injury (SNI) surgery was previously described in detail (Wang et al. Anesthesiology 2011, 115: 812-821). Briefly,”\nAnimals were individually placed into plexiglass chambers as above and acclimated for 20 min. A drop of acetone was applied to the lateral plantar surface of the paws (in the distribution of the sural nerve). […] 0: no visible response or startle response lasting <0.5 second; 1: paw withdrawal lasting <5 seconds; 2: withdrawal lasting 5 to 10 seconds, +/− licking of the paws; 3: prolonged repetitive withdrawal lasting >10 s. Acetone was applied 5 times to each paw, and an average score was calculated."}, "[6]": {"conditions": "cited from earlier work; for antidepressant effects: literature (Sekiguchi 2002; Quirk 2002); for antidepressant effect on pain-induced depression: SNI model, Wang et al. 2011"}, "[7]": {"tested_on": "GluA1", "conditions": "Li et al. 2010; cited from earlier work"}, "[8]": {"tested_on": "SNI-treated rats", "conditions": "Wang et al. 2011; cited from earlier work"}, "[9]": {"conditions": "administered directly into the NAc, SNI-treated rats, vs saline"}, "[10]": {"conditions": "10 mg/kg intraperitoneal, SNI rats, vs DMSO"}, "[11]": {"conditions": "injected into NAc core, SNI-treated rats"}},
  "note": "Entries after “also recorded” stand apart in the source; their conditions may differ. Read-outs that look alike come from different tables or passages of the source.",
  "data": [
    {"smiles": "O=C1CCCN1", "note": "[2-pyrrolidinone]", "values": [
      {"measurement": "sensory hypersensitivity", "setting": "[1]; SNI-treated rats", "value": "did not have any effect; also recorded: unaltered"},
      {"measurement": "currents of GluA2-lacking AMPA receptors (CPAR currents)", "setting": "[2]; in vitro, Nishizaki et al. 2002", "value": "specifically increase CPAR currents; also recorded: specifically increase the currents of GluA2-lacking AMPA receptors"},
      {"measurement": "sucrose preference (depression-like behavior)", "setting": "[3]; [9]", "value": "increased sucrose; also recorded: return of sucrose preference to near control (painless) levels"}
    ]},
    {"smiles": "O=C(c1ccc2c(c1)OCCO2)N1CCCCC1", "note": "[CX546]", "values": [
      {"measurement": "immobility on the forced swim test", "setting": "[4]", "value": "significantly decreases immobility; also recorded: improves performance on the forced swim test"},
      {"measurement": "cold allodynia", "setting": "[5]; [10]", "value": "relieves cold allodynia"},
      {"measurement": "analgesic effect", "setting": "[1]; 2.5 mg/kg, SNI rats, vs DMSO", "value": "does not produce any statistically significant analgesic effect"},
      {"measurement": "mechanical allodynia", "setting": "[1]; 5 mg/kg intraperitoneal, SNI rats, vs DMSO", "value": "successfully relieves mechanical allodynia; also recorded: relieve mechanical allodynia"},
      {"measurement": "mechanical allodynia", "setting": "[1]; [10]", "value": "successfully relieves mechanical allodynia; also recorded: relieve mechanical allodynia"}
    ]},
    {"smiles": "CC(C)S(=O)(=O)NC[C@H](C)c1ccc(-c2ccc(C#N)cc2)cc1", "note": "[LY451646]", "values": [
      {"measurement": "antidepressant effects", "setting": "[6]", "value": "antidepressant effects"},
      {"measurement": "potentiation of CPARs and calcium impermeable AMPA receptors", "setting": "[2]", "value": "potentiate both CPARs and calcium impermeable AMPA receptors"}
    ]},
    {"smiles": "NCCCNCCCCNCCCNC(=O)Cc1cccc2ccccc12", "note": "[NASPM, 1-naphthyl acetyl spermine]", "values": [
      {"measurement": "cold hypersensitivity", "setting": "[5]; [11]", "value": "did not alter"},
      {"measurement": "sensory hypersensitivity", "setting": "[1]; SNI-treated rats", "value": "does not alter"},
      {"measurement": "mechanical hypersensitivity", "setting": "[1]; [11]", "value": "does not change mechanical hypersensitivity; also recorded: did not alter; also recorded: no effects on mechanical hypersensitivity"},
      {"measurement": "sucrose preference (depression-like behavior)", "setting": "[3]; [9]", "value": "decrease in sucrose preference; also recorded: enhance depression-like behavior; also recorded: significant further decline in their already reduced sucrose preference; also recorded: reduces sucrose preference"},
      {"measurement": "average difference in sucrose preference between NASPM and saline treatment", "setting": "[3]; based on preliminary data, used for power analysis, STD 0.15", "value": 0.2},
      {"measurement": "sucrose preference (depression-like behavior)", "setting": "[3]; injected into NAc core, sham-treated rats", "value": "did not show this depression-like behavioral response"}
    ]},
    {"smiles": "NC(=O)COc1c(F)cc(SCCNS(=O)(=O)c2ccccc2)cc1F", "note": "[PEPA, 4-[2-(phenylsulfonylamino)ethylthio]-2,6-difluorophenoxyacetamide]", "values": [
      {"measurement": "antidepressant effects", "setting": "[6]", "value": "antidepressant effects"},
      {"measurement": "potentiation of CPARs and calcium impermeable AMPA receptors", "setting": "[2]", "value": "potentiate both CPARs and calcium impermeable AMPA receptors"}
    ]},
    {"smiles": "CNC1(c2ccccc2Cl)CCCCC1=O", "note": "(stereo not shown) [ketamine]", "values": [
      {"measurement": "GluA1 levels", "setting": "[7]", "value": "increase GluA1 levels"},
      {"measurement": "sensory pain relief", "setting": "[8]", "value": "without exerting long lasting sensory pain relief"},
      {"measurement": "antidepressant effect on pain-induced depression", "setting": "[6]", "value": "antidepressant properties in the SNI model"},
      {"measurement": "antidepressant effect on pain-induced depression", "setting": "[6]; listed as Ketamine", "value": "effectively treat pain-induced depression"}
    ]}
  ]
}
